Key:
[1] = test system: UC11-MG human astrocytoma cells; experiment: D-aspartate (excitotoxin) release by hypo-osmotically stressed astrocytoma cells; assay type: cell-based
Text: The in vitro tests described in this example used UC11-MG human astrocytoma cells, obtained from the University of Cincinnati, and described in Liwnicz et al 1986 and Lomneth et al 1989. Cell culture reagents (including RPMI 1640, fetal bovine serum, trypsin, and gentamicin) were obtained from Gibco (Gaithersburg, Md.). Radiolabelled D-[2,3-^3 H]aspartate was obtained from Amersham Life Sciences (Buckinghamshire, England). ScintiVerse II scintillation fluid was obtained from Fisher Scientific (Pittsburgh, Pa.). All other chemicals were obtained from Sigma Chemical Co. (St. Louis, Mo.). Osmolarities of solutions were measured using the Advance DigiMatic Osmometer Model 3D II (Advanced Instruments Inc., Mass.).
The UC11-MG astrocytoma cells were cultured in 75 ml vented flasks at 37° C. inside a humidified incubator in 5% CO2 /95% air. The cells were grown in RPMI Medium 1640 supplemented with 10% fetal bovine serum and […] gentamicin. At approximately 90% confluence, the cells were detached and suspended using a 0.0625% trypsin solution in Buffer A (137 mM NaCl, 5.37 mM KCl, 5.55 mM glucose, 4.17 mM NaHCO3, and 0.54 mM EDTA disodium salt, pH 7.4). The cells were then plated onto 6-well tissue culture plates at a seeding ratio of 4 plates per flask and 4 ml of cell-media suspension per well. The plated cells were used in experiments the next day at approximately 90% confluence. Plates that appeared to be more than 95% confluent were not used, because higher levels of confluence led to uncontrollable differentials in exposure of the cells to culture media and labelled aspartate. All tests were performed in triplicate. All media collections were done at 5 minute intervals, using pipettes, and were followed by promptly loading fresh buffer into each well before any drying occurred. All buffer samples collected in this manner were loaded into scintillation vials, mixed with 5 ml scintillation fluid, and counted for 1 minute in a scintillation counter (Beckman LS8000, Fullerton, Calif.).
Prior to D-aspartate exposure, the wells were washed three times under sterile conditions with 3 ml of 37° C. Buffer B (122 mM NaCl, 3.3 mM KCl, 1.2 mM CaCl2, 0.4 mM MgSO4, 1.2 mM KH2 PO4, 25 mM Hepes, 10 mM glucose, pH 7.4).
The cells were then loaded with 0.5 μCi/ml of D-aspartate, and incubated at 37° C. for 30 min. Cells were then washed four times with Buffer B, and the last washing fluid was left on the cells. The plates were then placed on an orbital shaker and maintained at 37° C.
Baseline aspartate release levels (prior to drug treatment) were determined by incubating the cells with normal Buffer B (285 mOsm) for 15 minutes, while buffer was collected every 5 minutes.
After the buffer was collected from a well at the 15 minute mark, the next set of normal Buffer B added to that well contained a test compound at a known concentration; each compound was tested over a range of concentrations. Cells were then incubated for two 5 minute intervals with solutions of test compounds in normal Buffer B. In some tests which used buffers containing relatively high concentrations of a test drug with limited solubility in water, DMSO was added to the mixture to increase the solubility of the compound in water.
Beginning at the 25-minute mark, the cells were stimulated to begin releasing aspartate by loading a well with hypo-osmotic buffer, prepared by diluting Buffer B with an equal volume of distilled and deionized H2 O, resulting in an osmolarity of about 145 mOsm. This hypo-osmoticsolution caused the cells to begin taking in excess water, to try to reestablish the normal osmotic gradients that exist across the cell membranes. The water-induced swelling and stress then began to induce release of aspartate by the cells, and the amount of aspartate released by the swollen astrocyte cells was measured by removing the buffer every 5 minutes and testing it in a scintillation counter.

[2] = test system: neuronal damage caused by focal brain ischemia; experiment: Focal cerebral ischemia, middle cerebral artery occlusion model in rats; assay type: in vivo, Sprague-Dawley rats
Method: Other in vivo tests were also carried out using "focal" brain ischemia (i.e., blood supply to only a portion of the brain is disrupted, as usually occurs during a stroke). These assays used a surgical procedure described in Example 25, in which the right middle cerebral artery (MCA) and the right common carotid artery (CCA) of rats were clamped shut for two hours. The clamps were then removed, and the GERI-E7 was administered subsequently. The rats were sacrificed 3 days later, and brain sections were analyzed using tetrazolium dye, to determine the volumes of brain tissue with large numbers of dead or dying neurons.
In a second set of in vivo tests, a middle cerebral artery occlusion model was used in rats, to evaluate the ability of test compound GERI-E7 to reduce neuronal damage caused by focal brain ischemia. These tests were also performed in the laboratory of Dr. Claude Wasterlain, at the Sepulveda VA Medical Center in Los Angeles.
Male Sprague-Dawley rats (220 to 285 g) were intubated with an 18 gauge gavage needle and artificially respirated with a Harvard small animal respirator, 50 to 60 strokes/min, 2.0 to 3.0 cc. Anesthetization was induced by administering 1 to 2% methoxyflurane in a 1:2 O2 :N2 O gas mixture. To allow for rapid induction of the anesthetic state, succinylcholine (4 mg/kg, i.p.) was given immediately after anesthesia commenced, and surgery began 15 to 20 minutes later. Body temperature was maintained throughout by a heat lamp and rectal probe.
Focal cerebral ischemia was induced by reversibly clipping the right middle cerebral artery (MCA) and the right common carotid artery (CCA), as described in articles such as Kaplan et al 1991. A tracheal incision approximately 2.5 cm long was made, allowing placement of 4-0 suture silk under the CCA. This allowed rapid manipulation of the artery for clip placement. The temporalis muscle was partially excised and a 2 mm burr hole was drilled 2-3 mm rostral to the point of fusion of the zygoma with the temporal bone. Saline was used throughout this procedure for washing and maintenance of moisture.
The MCA was occluded below the rhinal fissure with a Codman Microaneurysm Clip #1. After the MCA was occluded the animal was turned onto its back and the CCA was occluded with a Roboz Microaneurysm Clip RS-5424.
A moistened piece of cotton was placed on the head wound and the tracheal region was partially closed by suture prior to placement of the animal in a warm cage with an oxygen tent. After a two-hour occlusion period (shown to produce a consistently measurable but non-lethal infarct), the clips were removed and methoxyflurane was administered via a nose cone. Visual verification was made for both artery occlusion, and post-occlusion reperfusion.
After the clips were removed and reperfusion was established, each animal was treated with either the GERI-E7 compound, at 20 mg/kg IV, or with the saline vehicle. All test and control groups had 10 animals. The wounds were closed and the animals were returned to their home cages.
Animals were sacrificed 72 hours later, and the brains were perfusion-fixedwith 4% paraformaldehyde. […] Infarct area was measured with an image analysis system at 8 to 10 levels between the posterior hippocampus and piriform olfactory cortex, to the level of the rhinal fissure. Infarct volume was determined by multiplying the average infarct area by the length of the brain between the posterior hippocampus and the piriform olfactory cortex. […]

CCC[C@]12CCC(=O)C=C1c1c(cc(OCC3=NCCO3)c(Cl)c1Cl)C2 [GERI-E7, R(+)-2-[[(5,6-dichloro-2,3,9,9a-tetrahydro-3-oxo-9a-propyl-1H-fluoren-7-yl)-oxy]methyl]oxazoline] was tested, and the IC50 ([1]; Homo sapiens, UC11MG, hypo-osmotic stress, about 145 mOsm, AUC-based, read-out: IC50 value (suppression of excitotoxin / D-aspartate release by stressed astrocyte cells)) was 8.5 µM, the Comparative potency ([1]; relative to L-644,711 (100% = benchmark)) was 3,100% and the Edema ([2]; 20 mg/kg IV after 2 h occlusion, 72 h) was “Edema was also reduced”. For the same compound, the “Reduction of area of infarct volume” value ([2]; 20 mg/kg IV after 2 h occlusion, 72 h, FIG. 13) was “about 50%”, the “Reduction of brain damage caused by focal brain ischemia” value ([2]; animal model used) was “very effective in reducing brain damage” and the “Reduction of infarct volumes” value ([2]; first round of focal assays) was “about 30%”. The “Reduction of infarct volumes” value ([2]; second set of assays, new batch stored in liquid nitrogen, mixed with carrier less than 24 hours before injection, average) was 50%.

Source: patent publication US6251898A, “Medical use of fluorenone derivatives for treating and preventing brain and spinal injury” (Questcor Pharmaceuticals, Inc., priority 1999, dated 2001)
